Structures can show the parent of a compound that is named as a salt. Where two headings read alike, the source gives them in different places.
Legend:
[1] = target: T1, purified human ODC enzyme (Homo sapiens, UniProt P11926); assay: In vitro ODC enzyme activity assay; format: biochemical; conditions: for IC50: read-out: ODC biochemical inhibition IC50
T1 construct: His6 (C); made in house; host or cells: E. coli BL21(DE3)
T1 sequence (P11926 1-461): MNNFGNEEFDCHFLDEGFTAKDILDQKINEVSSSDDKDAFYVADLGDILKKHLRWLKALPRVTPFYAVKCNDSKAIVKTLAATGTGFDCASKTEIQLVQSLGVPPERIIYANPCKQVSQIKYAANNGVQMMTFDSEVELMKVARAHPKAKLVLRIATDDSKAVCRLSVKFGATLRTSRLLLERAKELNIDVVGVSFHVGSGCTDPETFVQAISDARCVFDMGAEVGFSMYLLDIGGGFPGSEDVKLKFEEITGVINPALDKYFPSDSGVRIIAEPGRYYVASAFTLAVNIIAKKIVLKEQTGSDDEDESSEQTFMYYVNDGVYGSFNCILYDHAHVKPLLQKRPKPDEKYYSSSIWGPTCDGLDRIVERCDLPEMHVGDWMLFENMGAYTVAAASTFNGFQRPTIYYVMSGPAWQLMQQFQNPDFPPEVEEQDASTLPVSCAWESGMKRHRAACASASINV
Procedure: Our strategy to identify novel ODC inhibitors was to first screen new analogs for ODC inhibition at 50 μM using our in vitro enzyme activity assay and purified human ODC (Table 1). Those showing significant inhibition were then titrated to provide an ODC IC50 followed by cell-based screening against both cancer (Kelly neuroblastoma) and noncancerous (neonatal fibroblasts) cell lines. For the cancer cell line, higher cytotoxicity was desired and for the noncancerous cell line counter screen, lower cytotoxicity was desired.
In vitro ODC activity was measured using 100 ng of purified human ODC enzyme, as we previously described.[53],[99] ODC was incubated with increasing concentrations of inhibitors for 30 min at room temperature in a buffer containing 25 mM Tris and 0.1 mM EDTA. […] In the cell-based ODC activity assay, Kelly neuroblastoma cells that were treated with 500 μM inhibitors were harvested in a buffer containing 25 mM Tris HCl, 0.1 mM EDTA, and 2.5 mM DTT. […] For both the in vitro and cell-based assay, the microcentrifuge tubes were then placed into scintillation vials containing a piece of filter paper saturated with 200 μL of 0.1 M NaOH to capture the release of radiolabeled carbon dioxide. The samples were incubated in a 37 °C incubator while shaking for 30 min (in vitro) or 2 h (cell-based). The enzymatic reaction was stopped by adding 250 μL of 5 M sulfuric acid to each sample and incubating at 37 °C while shaking for 30 min. The microcentrifuge tubes were removed from the scintillation vials, and 5 mL of scintillation fluid was added. Disintegrations per minute (DPM) of each sample was measured using a TriCarb liquid scintillation counter (PerkinElmer). The specific ODC activity is expressed as nmol CO2/min/mg protein (in vitro) or pmol CO2/min/mg protein (cell-based). The individual ODC inhibitor IC50 values were determined using Graphpad Prism 8.

[2] = system: polyamine levels in Kelly neuroblastoma cells; assay: Polyamine analysis (HPLC of dansylated polyamines); format: cell-based; conditions: 500 μM inhibitor; for Kelly Treated Neuroblastoma Cells (Total Spm): Control = 2.57+0.47; for Kelly Treated Neuroblastoma Cells (Spd): Control = 8.52+1.63; for Kelly Treated Neuroblastoma Cells (Total Put): Control = 9.71+1.31; for Kelly Treated Neuroblastoma Cells (Total PA): Control = 20.81 +2.67; for polyamine levels relative to control (in words) / putrescine level (in words): Figure 6B
Procedure: Polyamines from Kelly neuroblastoma cells treated with 500 μM inhibitors were isolated, dansylated, and analyzed by HPLC. Briefly, polyamines were extracted and protonated in perchloric acid/sodium chloride buffer. To 100 μL of sample, 4.5 nmol of 1,7 diaminoheptane internal standard and 200 μL of 1 M sodium carbonate was added prior to dansylation with 400 μL of 5 mg/mL dansyl chloride (Sigma-Aldrich) for 60 min at 65 °C. One hundred μL of 1 M proline was then added to each reaction and incubated for 20 min at 65 °C. Polyamines were extracted from the mixture using methylene chloride. The methylene chloride was allowed to evaporate, the samples were resuspended in methanol and run through a C18 cleanup column. Samples were then analyzed using a Thermo Scientific/Dionex Ultimate 3000 HPLC, using a Syncronis C18 column (250 × 4.6 mm, […] pore size), and containing a fluorescence detector. The dansylated polyamine peaks were visualized by excitation at 340 nm and emission at 515 nm. The buffers used for elution of the polyamines were as follows: buffer A: 10 mM sodium heptanesulfonate/10% acetontrile at pH 3.4. Buffer B: 100% acetonitrile. The flow rate was 0.7 mL per minute. The column was equilibrated with 55% buffer B/45% buffer A prior to injection of the sample. Upon injection of the sample, elution of polyamines occurs in an isocratic solution of 55% buffer B/45% buffer A for 28 min. The solution was then slowly ramped to 95% buffer B/5% buffer A for 20 min. This gradient was held for 27 min to elute the spermine peak. The solution was then quickly dropped back to 55% buffer B/45% buffer A to re-equilibrate the column prior to the next sample being injected. Using the relative molar response derived from N-dansylated PA and 1,7 diaminoheptane standards, the amount of N-dansylated polyamines was calculated and normalized to total sample protein.

[3] = read-out: ODC biochemical inhibition % (50 μM)

NCCCON [APA, 3-(Aminooxy)propan-1-Amine Dihydrochloride]
inhibition at 50 µM ([1]; 50 µM, supplement csv, read-out: ODC % inhibition (screened at 50 µM)): 99%
inhibition at 50 µM [1, 3]: > 99%
IC50 [1]: 40 nM
Kelly Treated Neuroblastoma Cells (Total Spm) [2]: 5.09+1.39
Kelly Treated Neuroblastoma Cells (Spd) [2]: 7.14+6.27
Kelly Treated Neuroblastoma Cells (Total Put) [2]: 0
Kelly Treated Neuroblastoma Cells (Total PA) [2]: 12.2+7.59
polyamine levels relative to control (in words) ([2]; Kelly neuroblastoma cells): reduced polyamine levels
putrescine level (in words) ([2]; Kelly neuroblastoma cells): undetected

Cl.Cl.NOCC1(F)CCNC1 (stereo not drawn) [Compound 11, 3-[(aminooxy)methyl]-3-fluoropyrrolidine di-formic acid]
inhibition at 50 µM [1, 3]: > 99%
IC50 [1]: 50 nM
Kelly Treated Neuroblastoma Cells (Total Spm) [2]: 2.74+0.46
Kelly Treated Neuroblastoma Cells (Spd) [2]: 1.81+0.73
Kelly Treated Neuroblastoma Cells (Total Put) [2]: 0
Kelly Treated Neuroblastoma Cells (Total PA) [2]: 4.55+1.14
polyamine levels relative to control (in words) ([2]; Kelly neuroblastoma cells): reduced polyamine levels
putrescine level (in words) ([2]; Kelly neuroblastoma cells): undetected
spermidine and spermine levels (in words) ([2]; Kelly neuroblastoma cells, relative to APA): greatest reductions

Source: paper PMC11912471 (Journal of Medicinal Chemistry, 2025)
